assay: Antagonist activity at PAR4 in human platelet rich plasma assessed as inhibition of gamma-PAR4 agonist peptide (AYPGKF-NH2)-induced platelet aggregation preincubated for 5 mins followed by peptide addition and measured after 5 mins by aggregometer

Structure (SMILES) | IC50 [nM]
COCc1ncc2c(-c3nc4cc(F)c(OCCOC(=O)Nc5cc(F)cc(C#N)c5)cc4s3)cc(C)cc2n1 | 9.5
COc1ncc2c(-c3nc4cc(F)c5c(c4s3)C[C@H](COC(=O)Nc3cc(F)cc(C#N)c3)O5)cc(C)cc2n1 | 3.5
COc1ncc2c(-c3nc4cc(F)c5c(c4s3)C[C@H](COC(=O)Nc3cccc(C#N)c3)O5)cc(C)cc2n1 | 6.4

assay: Antagonist activity at PAR4 in mouse washed platelets assessed as inhibition of gamma-PAR4 agonist peptide (AYPGKF-NH2)-induced platelet aggregation preincubated for 5 mins followed by peptide addition and measured after 5 mins by aggregometer

Structure (SMILES) | IC50 [nM]
COc1ncc2c(-c3nc4cc(F)c5c(c4s3)C[C@@H](COC(=O)N3CCOCC3)O5)cc(C)cc2n1 | 304
COc1cc(Cl)c2nc(-c3cc(C)cc4cnc(OC(C)C)nc34)sc2c1 | 773
COc1ncc2c(-c3nc4cc(F)c5c(c4s3)C[C@@H](COC(=O)Nc3ccc(C(=O)N4CCOCC4)cc3)O5)cc(C)cc2n1 | 165
COc1ncc2c(-c3nc4ccccc4s3)cc(C)cc2n1 | 368
COc1ccc(NC(=O)OC[C@H]2Cc3c(c(F)cc4nc(-c5cc(C)cc6nc(OC)ncc56)sc34)O2)cn1 | 356
COc1ncc2cc(C)cc(-c3nc4ccccc4s3)c2n1 | 563
CCOc1ncc2c(-c3nc4cc(F)c(OC)cc4s3)cc(C)cc2n1 | 369
COCCOc1ncc2cc(C)cc(-c3nc4c(Cl)cc(OC)cc4s3)c2n1 | > 1000
COc1ccc2nc(-c3cc(C)cc4nc(OC(C)C)ncc34)sc2c1 | 362
COc1cc(Cl)c2nc(-c3cc(C)cc4cnc(OCC(C)C)nc34)sc2c1 | > 1000
COc1cc(Cl)c2nc(-c3cc(C)cc4cnc(OC5CCCC5)nc34)sc2c1 | 986
COCOc1ncc2c(-c3nc4c(F)cc(OC)cc4s3)cc(C)cc2n1 | 89
COCc1ncc2c(-c3nc4cc(F)c(OCCOC(=O)Nc5cc(F)cc(C#N)c5)cc4s3)cc(C)cc2n1 | 19
COc1ncc2c(-c3nc4cc(F)c5c(c4s3)C[C@H](COC(=O)Nc3cnc(C)nc3)O5)cc(C)cc2n1 | 689
COc1cc(F)c2nc(-c3cc(C)cc4nc(OC)ncc34)sc2c1 | 80
COc1ncc2c(-c3nc4cc(F)c5c(c4s3)C[C@H](COC(=O)Nc3ccc(C)cc3F)O5)cc(C)cc2n1 | 51
COc1cc(Cl)c2nc(-c3cc(C)cc4cnc(N5CCOCC5)nc34)sc2c1 | 220
COc1ccc2nc(-c3cc(C)cc4nc(SC)ncc34)sc2c1 | 223
COCOc1ncc2c(-c3nc4ccc(OC)cc4s3)cc(C)cc2n1 | 109
COCc1ncc2c(-c3nc4cc(F)c(OCCOC(=O)Nc5ccc(C(=O)N6CCOCC6)cc5)cc4s3)cc(C)cc2n1 | 89
COc1cc(Cl)c2nc(-c3cc(C)cc4cnc(N5CCCCC5)nc34)sc2c1 | 335
COc1ccc2nc(-c3cc(C)cc4nc(OC)ncc34)sc2c1 | 103

Structure (SMILES) | IC50 [nM]
CCOc1ncc2c(-c3nc4c(F)cc(OC)cc4s3)cc(C)cc2n1 | 274
CCOc1ncc2cc(C)cc(-c3nc4c(Cl)cc(OC)cc4s3)c2n1 | 567
COc1ccc(NC(=O)OC[C@H]2Cc3c(c(F)cc4nc(-c5cc(C)cc6nc(OC)ncc56)sc34)O2)c(C)c1 | 187
COc1cc(F)c2nc(-c3cc(C)cc4cnc(OC)nc34)sc2c1 | 41
COc1ncc2c(-c3nc4cc(F)c5c(c4s3)C[C@H](COC(=O)Nc3cc(F)cc(C#N)c3)O5)cc(C)cc2n1 | 8.6
COc1cc(C)c2nc(-c3cc(C)cc4nc(OC)ncc34)sc2c1 | 163
CCOc1ncc2c(-c3nc4c(Cl)cc(OC)cc4s3)cc(C)cc2n1 | 223
COc1cc(OC)c2nc(-c3cc(C)cc4nc(OC)ncc34)sc2c1 | 223
COc1ncc2cc(C)cc(-c3nc4c(Cl)cc(Cl)cc4s3)c2n1 | 356
COc1cc(Cl)c2nc(-c3cc(C)cc4nc(OC)ncc34)sc2c1 | 46
COc1cc(Cl)c2nc(-c3cc(C)cc4cnc(OC(F)F)nc34)sc2c1 | 87
COCCCOc1ncc2cc(C)cc(-c3nc4c(Cl)cc(OC)cc4s3)c2n1 | 963
COCOc1ncc2c(-c3nc4c(Cl)cc(OC)cc4s3)cc(C)cc2n1 | 45
COc1cc2sc(-c3cc(C)cc4nc(SC)ncc34)nc2cc1F | 96
COc1ncc2cc(C)cc(-c3nc4c(C)cc5c(c4s3)OCCO5)c2n1 | 117
COc1cc(Cl)c2nc(-c3cc(C)cc4cnc(C)nc34)sc2c1 | 64
COc1cc(Cl)c2nc(-c3cc(C)cc4cncnc34)sc2c1 | 72
COc1ncc2c(-c3nc4cc(F)c(OC)cc4s3)cc(C)cc2n1 | 21
CNc1ncc2c(-c3nc4c(Cl)cc(OC)cc4s3)cc(C)cc2n1 | 223
COc1ccc2nc(-c3cc(C)cc4cnc(OC)nc34)sc2c1 | 89
COc1cc(Cl)c2nc(-c3cc(C)cc4cnc(N(C)C)nc34)sc2c1 | 105
COc1ncc2c(-c3nc4cc(F)c5c(c4s3)C[C@@H](COC(=O)Nc3cc(F)cc(C#N)c3)O5)cc(C)cc2n1 | 109

Structure (SMILES) | IC50 [nM]
COc1ncc2c(-c3nc4cc(F)c(OCCO)cc4s3)cc(C)cc2n1 | 27
COCc1ncc2c(-c3nc4cc(F)c(OCCOC(=O)Nc5cccc(C#N)c5)cc4s3)cc(C)cc2n1 | 69
CNc1ncc2cc(C)cc(-c3nc4c(Cl)cc(OC)cc4s3)c2n1 | 98
COc1cc(Cl)c2nc(-c3cc(C)cc4cnc(SC)nc34)sc2c1 | 89
COc1cc(Cl)c2nc(-c3cc(C)cc4cnc(N5CCC6(CC5)OCCO6)nc34)sc2c1 | > 1000
COc1ncc2cc(C)cc(-c3nc4cc(F)c(OC)cc4s3)c2n1 | 30
COc1ccc(NC(=O)OC[C@H]2Cc3c(c(F)cc4nc(-c5cc(C)cc6nc(OC)ncc56)sc34)O2)cc1 | 96
COc1ncc2c(-c3nc4cc(F)c5c(c4s3)C[C@H](COC(=O)N3CCOCC3)O5)cc(C)cc2n1 | 168
COc1cc(Cl)c2nc(-c3cc(C)cc4cnc(N5CC6(COC6)C5)nc34)sc2c1 | > 1000
COc1ncc2c(-c3nc4cc(F)c5c(c4s3)C[C@H](COC(=O)Nc3ccc(C)cc3)O5)cc(C)cc2n1 | 73
COCc1ncc2c(-c3nc4cc(F)c(OCCOC(=O)N5CCOCC5)cc4s3)cc(C)cc2n1 | 756
COCOc1ncc2c(-c3nc4cc(F)c(OC)cc4s3)cc(C)cc2n1 | 25
COc1ncc2c(-c3nc4cc(F)c5c(c4s3)C[C@H](COC(=O)Nc3ccc(C(=O)N4CCOCC4)cc3)O5)cc(C)cc2n1 | 417
COc1cc(Cl)c2nc(-c3cc(C)cc4nc(OC(C)C)ncc34)sc2c1 | 456
COCc1ncc2c(-c3nc4cc(F)c(OCCOC(=O)OC)cc4s3)cc(C)cc2n1 | 643
COc1cc(Cl)c2nc(-c3cc(C)cc4cnc(OC)nc34)sc2c1 | 32
COc1cc(Cl)c2nc(-c3cc(C)cc4nc(SC)ncc34)sc2c1 | 136
COc1cc(OC)c2nc(-c3cc(C)cc4nc(SC)ncc34)sc2c1 | > 1000
COC(=O)OC[C@H]1Cc2c(c(F)cc3nc(-c4cc(C)cc5nc(OC)ncc45)sc23)O1 | 535
COc1ncc2c(-c3nc4cc(F)c5c(c4s3)C[C@H](COC(=O)Nc3cccc(C#N)c3)O5)cc(C)cc2n1 | 15
COc1ncc2c(-c3nc4cc(F)c5c(c4s3)C[C@H](COC(=O)Nc3ccc(OC)c(F)c3)O5)cc(C)cc2n1 | 169
